Read-outs that look alike come from different tables or passages of the source.
Key:
[1] = Physical stability under mechanical stress (compression, grinding, milling), checked by X-ray powder diffraction; assay type: physicochemical
Method: The crystalline forms of nalbuphine HCl were identified by their powder X-ray diffraction (PXRD) peaks/pattern. PXRD analyses of crystalline Forms A, B, C, D, F, G, H, I, K and amorphous Form Z were performed using an Inel XRG-3000 diffractometer equipped with a CPS (Curved Position Sensitive) detector with a 2θ range of 120°. Real time data were collected using Cu—Kα radiation starting at approximately 4°2θ at a resolution of 0.03°2θ. The tube voltage and amperage were set to 40 kV and 30 mA, respectively. The monochromator slit was set at 5 mm by 160 μm. […] The sample was prepared for analysis by packing into a thin-walled glass capillary. The capillary was mounted onto a goniometer head that is motorized to permit spinning of the capillary during data acquisition. Instrument calibration was performed using a silicon reference standard.

[2] = Physical stability on drying at 60° C.; conditions: dried at 60° C.
[3] = Form conversion upon heating (VT-XRPD); assay type: physicochemical; conditions: before melting, HCl
Method: Variable-temperature X-ray powder diffraction (VT-XRPD) analysis was performed on a Shimadzu XRD-6000 X-ray powder diffractometer equipped with an Anton Paar HTK 1200 high temperature stage. The sample was packed in a ceramic holder and analyzed from 2.5 to 40°2θ at 3°/min (0.4 sec/0.02° step). The heating rate was 10° C./min. Cooling was done by shutting off the furnace. A silicon standard was analyzed to check the instrument alignment. Temperature calibration was performed using vanillin and sulfapyridine standards. Data were collected and analyzed using XRD-6100/7000 v. 5.0. In house software (Pattern Match, SSCI Inc., An Aptuit Company) was used to generate and edit the peak lists. The value of each peak position represents the value at the apex of the peak. In the tables which follow herein, the PXRD peak lists are presented for each solid form along with the conversion to ‘d’ value (assuming a mean Cu Kα wavelength of 1.5418 Å) and relative peak intensities scaled to 100. The relative intensity (“R.I.”) of each peak is shown, wherein Relative Intensity is the ratio of the height of each peak compared to the highest peak, which is designated as 100%.

Cl.Oc1ccc2c3c1O[C@H]1[C@@H](O)CC[C@@]4(O)[C@@H](C2)N(CC2CCC2)CC[C@]314 [Form A]
form change under mechanical stress ([1]; compression or dry grinding): converting to Form C
effect of further grinding on crystallinity ([1]; further grinding, X-ray powder diffraction): some loss of crystallinity and formed partially amorphous material
form change under mechanical stress ([1]; wet grinding): Form B
form change at extremely high humidity (97% RH, hydrochloride): Form B (dihydrate)

Cl.Oc1ccc2c3c1O[C@H]1[C@@H](O)CC[C@@]4(O)[C@@H](C2)N(CC2CCC2)CC[C@]314 [Form B, nalbuphine HCl]
physical stability when milled ([1]; milled, X-ray powder diffraction): physically unstable when milled, losing its crystallinity
physical stability when dried [2]: mostly converting to Form C (monohydrate)
temperature of conversion to Form F upon heating [3]: about 190 °C

Cl.Oc1ccc2c3c1O[C@H]1[C@@H](O)CC[C@@]4(O)[C@@H](C2)N(CC2CCC2)CC[C@]314 [Form C, nalbuphine HCl]
form change at extremely high humidity (97% RH): converts to Form B (dihydrate)
temperature of conversion to Form F upon heating [3]: 200 °C

Cl.Oc1ccc2c3c1O[C@H]1[C@@H](O)CC[C@@]4(O)[C@@H](C2)N(CC2CCC2)CC[C@]314 [Form D, nalbuphine HCl]
temperature of conversion to Form F upon heating [3]: about 180 °C

Cl.Oc1ccc2c3c1O[C@H]1[C@@H](O)CC[C@@]4(O)[C@@H](C2)N(CC2CCC2)CC[C@]314 [Form F, nalbuphine HCl]
form change at extremely high humidity (85% RH): converts to Form B (dihydrate)

From patent US8536191B2 (priority 2010, dated 2013)
